Data set [1] has as its system polymicrobial biofilms of C. albicans (SC5314) and P. aeruginosa (PAO1). On the set-up: method as in PMID 38222503. As to conditions: 0.16 mM, XTT assay, Fig. 8(c); cited from earlier work.
The nature of data set [2]: Dynamic light scattering (DLS) of SSA aggregates. In kind it is physicochemical. As to conditions: for Peak 1 (nm) / Peak 2 (nm) / Peak 3 (nm): DLS average intensity particle size distribution; for Peak 1 (nm) / Peak 2 (nm) / Peak 3 (nm) / PDI: EtOH:H2O 1:19; for dH (nm): DLS intensity distribution peak maxima, H2O:EtOH 19:1, 2.78 mM, 298 K, after annealing. The source says:
DLS studies: All vials used for preparing the samples were clean and dry. All solvents used were filtered to remove any particulates that may interfere with the results obtained. Samples of differing concentrations were obtained through serial dilution of a concentrated solution. All samples underwent an annealing process, in which they were heated to 313 K before being allowed to cool to 298 K to allow each sample to reach a thermodynamic minimum. […]

The conditions of data set [3]: cited from earlier work; for CAC / CAC (mM) / ST at CAC (mN m^−1): H2O:EtOH 19:1, approx. 291 K; for CAC / CAC (mM): surface tension measurements; for ST at CAC (mN/M): Table S1, same datum as Table 1.
The subject of data set [4] is P. aeruginosa (PAO1) biofilms. Briefly: Biofilm inhibition, XTT metabolic assay. The format is cell-based, Pseudomonas aeruginosa. The following applies: 2.56 mM, Fig. 7(a). How it is done:
Initially, the ability of SSAs 1–5 to inhibit biofilm formation was determined against P. aeruginosa (PAO1) biofilms through an XTT metabolic assay, used to determine the viability of cells within a biofilm (Section S4, ESI ^†).[57] […] We believe that this may indicate that SSAs which contain a squaramide residue may experience an additional barrier to eliciting an antimicrobial effect that is concentration dependent.
Section S4: Microbial materials and methods
General remarks: The reference strains, Pseudomonas aeruginosa PAO1 and Candida albicans SC5314,
were used in this study. The strains were stored at −80 °C in nutrient broth (NB) (1 gL–1 meat extract, 2
gL–1 yeast extract, 5 gL–1 peptone, and 8 gL–1 sodium chloride) supplemented with 25 and 15 % (v/v)
glycerol, respectively. Before each assay, the P. aeruginosa and C. albicans strains were cultured from
the frozen stock onto nutrient agar (NA) (1 gL –1 […], 2 gL–1 yeast extract, 5 gL–1 peptone, 8 gL–
1 sodium chloride, 20 gL–1 agar) and yeast malt extract (YM) agar (3 gL–1 malt extract, 3 gL–1 yeast […]
for 48 hours at 37 °C and OD measurement (at a wavelength of 595 nm, OD 595) (EZ Read 800 Research, […]
introduced to each well. The plates were incubated for 3 hours at 37 °C in the dark and the absorbance
measured at 492 nm using a microtiter plate reader (EZ Read 800 Research, Biochrom, England). […]
evaluated. […]

The mark [5] stands for this setting: polydispersity index of DLS dH, 2.78 mM.

SMILES strings stand for the structures. “And” between values parts separate entries of the source, which are not always exact repeats. Identical values can stand only once.

Consider `O=S(=O)(O)CCCNC(=S)Nc1ccc(C(F)(F)F)cc1` [SSA 1], for which the antibiofilm activity in data set [1] is 60–80%. In data set [2] (0.28 mM), the “Peak 1 (nm)” value is 0.23 nm, the “Peak 2 (nm)” value was found to be 100.61 nm and the “Peak 3 (nm)” value was found to be 747.99 nm. Besides, the “Peak 2 (nm)” value in data set [2] (2.78 mM) was found to be 184.36 nm. Moreover, in data set [2], the “dH (nm)” value is 184.36 nm and 184 nm. The PDI in data set [2] (DLS, 0.28 mM) is 0.0602. This compound displayed a PDI in data set [2] (setting [5]) of 0.0315. For the same compound, in data set [3], the “CAC” value was 5.61 mM, the “CAC (mM)” value was 5.6[43] mM, the “ST at CAC (mN m^−1)” value was 34[43] mN m^−1 and the “ST at CAC (mN/M)” value is 33.59 mN/M.

As for `Cc1ccc2nc(-c3ccc(NC(=O)NCS(=O)(=O)O)cc3)sc2c1` [SSA 3], in data set [2] (0.28 mM), the “Peak 1 (nm)” value was 0.43 nm, the “Peak 2 (nm)” value was 56.01 nm and the “Peak 3 (nm)” value came to 462.06 nm. In data set [2] (2.78 mM), the “Peak 1 (nm)” value was determined as 51.65 nm and the “Peak 2 (nm)” value worked out at 672.27 nm. Also, the “dH (nm)” value in data set [2] was 672.27 nm and 672 nm. Also, the PDI in data set [2] (DLS, 0.28 mM) turned out to be 0.0863. For the same compound, the PDI in data set [2] (setting [5]) came out at 0.0658. Besides, in data set [3], the “CAC” value is on record as 0.5 mM, the “CAC (mM)” value was 0.5[42] mM, the “ST at CAC (mN m^−1)” value is 47[42] mN m^−1 and the “ST at CAC (mN/M)” value is 46.5 mN/M.

Regarding `O=C(O)CNc1c(Nc2ccc(C(F)(F)F)cc2)c(=O)c1=O` [SSA 5], the “Inhibition of biofilm formation” value in data set [4] is recorded as “completely inhibit biofilm formation”. The results for the “Peak 2 (nm)” value in data set [2] (0.28 mM) and in data set [2] (2.78 mM) were 125.90 nm and 160.53 nm, respectively. In addition, the “Peak 3 (nm)” value in data set [2] (0.28 mM) was 747.97 nm. Moreover, the “dH (nm)” value in data set [2] is reported as 174 nm. Besides, the PDI in data set [2] (DLS, 0.28 mM) amounted to 0.0547; in data set [2] (setting [5]), 0.0614.

For `O=C(O)CNC(=S)Nc1ccc(C(F)(F)F)cc1` [SSA 2], the antibiofilm activity in data set [1] was 60–80%. In addition, the “Peak 2 (nm)” value in data set [2] (0.28 mM) is recorded as 139.08 nm; in data set [2] (2.78 mM), 142.73 nm. For the same compound, in data set [2], the “dH (nm)” value was 142 nm and 143 nm. The PDI in data set [2] (DLS, 0.28 mM) came to 0.0160; in data set [2] (setting [5]), 0.0350.

For the compound `O=c1c(NCCCS(=O)(=O)O)c(Nc2ccc(C(F)(F)F)cc2)c1=O` [SSA 4], the “Inhibition of biofilm formation” value in data set [4] is “completely inhibit biofilm formation”. Further, in data set [2] (2.78 mM), the “Peak 2 (nm)” value was 162.46 nm. Moreover, the “dH (nm)” value in data set [2] is 162.46 nm and 162 nm. The PDI is 0.0452 in data set [2] (DLS, 0.28 mM) and 0.0388 in data set [2] (setting [5]).

Source of the values: article PMC12169104, “Towards the development of supramolecular self-associating amphiphiles as antibiofilm agents against Pseudomonas aeruginosa and Candida albicans biofilms” (Journal of Materials Chemistry. B, 2025).
